The text below walks through data of patent US12558383B2, “American cockroach extract, preparation thereof, preparation methods therefor and applications thereof” (SICHUAN GOOD DOCTOR PANXI PHARMACEUTICAL CO., LTD, priority 2019, dated 2026).

The test system of assay [1] is TNF-α release, LPS induced mouse macrophages (RAW264.7). The experiment in a line: TNF-α release of LPS-stimulated RAW264.7 macrophages (ELISA). To be noted: positive drug andrographolide group; LPS 1 μg/mL, TNF-α at 50 min; n=3. Format: cell-based. As for the experimental part: (§1) Based on TNF-a-IL-6/iNOS-NO inflammatory signal pathway, the regulatory effects of drugs MLG, MLP and MLX on LPS induced inflammation of mouse macrophages (RAW264.7) were evaluated.
(§2) The original solution of drugs MLG, MLP and MLX was diluted by 80 times, 120 times and 160 times, respectively, incubated with cells for 12 h in advance, and used to stimulate cells to induce inflammation by a final concentration of 1 μg/ml LPS. Enzyme linked immunosorbent assay (ELISA) and Griess method were used to detect the release amount of TNF-α at 50 min, and IL-6 at 4 h and NO at 12 h upon LPS stimulation.
(§3) The original solution of drugs MLG, MLP and MLX was diluted by 80 times, 120 times and 160 times respectively, incubated with cells for 12 hours in advance, and then added with 1 μg/mL LPS to stimulate cell inflammation. […]
(§4) All indexes were tested strictly in accordance with the instructions of kits. Finally, the absorbance value at the specific wavelengths were detected on an enzyme labeling instrument, and the content of indexes of each sample were calculated according to the standard curve prepared by the same method. If the absorbance value is lower than the absorbance value of the sample at the lower limit of the standard curve, it is counted as lower than the relevant value, and the relevant statistics are calculated as 0 mean and 0 variance.

Assay [2] relates to IL-6 release, LPS induced mouse macrophages (RAW264.7). The experiment in a line: IL-6 release of LPS-stimulated RAW264.7 macrophages (ELISA). Format: cell-based. The following applies: positive drug andrographolide group; LPS 1 μg/mL, IL-6 at 4 h; n=3. How it is done: as §1, §2, §3, §4
Assay [3] relates to NO release, LPS induced mouse macrophages (RAW264.7). Description: NO release of LPS-stimulated RAW264.7 macrophages (Griess method). Format: cell-based. To be noted: positive drug andrographolide group; LPS 1 μg/mL, NO at 12 h; n=3. As for the experimental part:
as §1, §2, §3, §4
A general note: Nitrite, measured by Griess reagent, commonly stands in for NO production.

Assay [4] relates to skin capillary permeability induced by xylene in mice. The experiment in a line: Increase of skin capillary permeability induced by xylene in mice (Evans blue). The format is in vivo. To be noted: extracts 2 mL/kg intragastric, dexamethasone 0.375 mg/kg, once a day 7 times. As for the experimental part: Fifty mice weighing 18-22 g were randomly divided into five groups according to their body weights: MLX, MLG and MLP test groups. […] One hour after the last administration, various mice were injected with 0.5% Evans blue normal saline solution by 0.1 ml/10 g bw via caudal vein, and then xylene were dropped by 30 μL/per mouse on the abdominal skin depilated 24 hours in advance. After 20 minutes, the mice were killed by removing the cervical vertebra. The blue stained skin on the abdomen was cut off, and cut into pieces with surgical scissors, placed into a test tube with a plug, added with and soaked in 5 ml of acetone normal saline (7:3), placed in the dark for 72 hours, and centrifuged at 3000 r/min for 10 minutes to obtain a supernatant. Colorimetric detection was performed at the wavelength of 590 nm on a spectral scanning multifunctional reader to measure the absorbance (OD value). The permeability is represented by OD value, and the results are statistically compared.

For assay [5], the system named is cotton ball granuloma in mice. Description: Cotton ball granuloma in mice. Format: in vivo. To be noted: extracts 2 mL/kg, dexamethasone 0.2 mg/kg, 7 consecutive days, n=10. How it is done: Fifty mice weighing 18-22 g were taken, 10/group, half male and half female. The mice were fixed, and disinfected on the chest with iodine. Iodine was removed with 75% alcohol cotton ball. A small hole was cut in the chest, 20 mg high-pressure sterilized cotton ball was implanted into the armpit subcutaneously from the incision with ophthalmic forceps, and then the skin was sutured. […] The above groups were administrated for 7 consecutive days. Before the end of the test on the 8th day, the body weight was measured, then the mice were killed by taking off the cervical vertebra. The implanted cotton ball was taken out together with the surrounding connective tissue, removed of the adipose tissue, wet weighted, placed into the oven at 60° C. for 24 hours, and weighed on a precision balance. The weight of granuloma was obtained by subtracting the original weight of cotton ball from the weighed weight, and the comparison and statistical analysis between groups were carried out.

Marks after values point to notes of the source that are not given here. A value given as a limit tells only on which side of the number the result lay.

Take `C=C1CC[C@@H]2[C@](C)(CO)[C@H](O)CC[C@@]2(C)[C@@H]1C/C=C1/C(=O)OC[C@H]1O` [Andro., andrographolide]: the TNF-α in assay [1] came out at 592.26 ± 45.7 pg/mL. Also, the IL-6 in assay [2] came out at 286.07 ± 47.81 pg/mL. The NO in assay [3] is 1.86 ± 0.34 µM.

In the case of `C[C@@H]1C[C@H]2[C@@H]3CCC4=CC(=O)C=C[C@]4(C)[C@@]3(F)[C@@H](O)C[C@]2(C)[C@@]1(O)C(=O)CO` [dexamethasone], the inhibition at 0.375 mg/kg in assay [4] (Mus musculus, po, 168 h, n=10, read-out: Inhibitory rate) is more than 80%. The compound further gave an Inhibitory rate in assay [4] (n=10) of 80.7%. In assay [5], the “Dry weigh of granuloma” value is 35.63 ± 8.38**^ mg and the “Wet weigh of granuloma” value came out at 252.3 ± 33.6 mg.
